Assay results: article PMC2806030, “Inhibition of mammalian S6 kinase by resveratrol suppresses autophagy” (Aging (Albany NY), 2009)

Tests used:
Pim-2 = biological target: T1, Pim-2 (Homo sapiens, UniProt Q9P1W9); assay: in vitro kinase screen (Upstate KinaseProfiler), single dose […]; format: biochemical
T1 construct: gene PIM2

CDK2/cyclinA(h) = CDK2/cyclinA(h) (Homo sapiens, UniProt P24941); assay: biochemical; parameters: Upstate KinaseProfiler in vitro kinase activity assay, per cent of DMSO control; settings: read-out: Activity (% of Control)
Experimental: (§1) Kinase profile and kinase assay. A Kinase profile against 100 kinases listed for resveratrol at 20 μM was generated utilizing Upstate's KinaseProfiler™ service. Assay protocols for each kinase are available from Upstate (Lake Placid, NY). In vitro kinase assay was performed as described previously. Briefly, HEK293 cells were transfected with HA-S6K1 wt, HA-S6K1 K100R, or vector as indicated. Cells were treated with 1 μg/ml insulin for 10 minutes prior to harvesting in PBS + 0.5% NP-40 + protease and phosphatase inhibitors. 125 μg of lysate per sample was immunoprecipitated using 0.5 μg/sample of anti-HA High-Affinity (Roche, Basel Switzerland). Beads from immunoprecipitations were washed three times in lysis buffer and once in kinase buffer, and kinase assays were performed with recombinant GST-S6 as substrate (1 μg per assay). In the indicated lanes varying doses of resveratrol or DMSO control were added to the reaction prior to addition of the GST-S6 substrate. All samples were subjected to SDS-PAGE, and 32P incorporation was quantified by using a Bio-Rad (Hercules, CA) Phosphor-Imager and subsequent analysis with ImageJ (NIH).  Figure 4. Resveratrol inhibits S6K1 in vitro. (A) Structural similarity between resveratrol and quercetin, a known kinase inhibitor. (B) Kinase inhibition profile for resveratrol at 20 μM obtained using KinaseProfiler™ (Upstate). Dashed line represents 100% activity as compared to control. Black filled-in bar on the graph indicates S6K1. Complete data set is provided in Supplementary Table 1. Error bars represent s.d.m. (C) Phosphorylation of recombinant GST-tagged S6 by immunoprecipitated HA-S6K1 under increasing concentrations of resveratrol (Res). Autoradiograph depicts S6K1 phosphorylation of GST-S6. (D) Average of three separate kinase assay experiments as performed in (C). Densitometry was performed using NIH ImageJ. Error bars represent s.e.m. […] Therefore, we hypothesized that the effect of resveratrol on autophagy could be related to inhibition of one or more upstream kinases. To test this, we performed an in vitro kinase screen and determined an inhibition profile for resveratrol. […] With the exception of S6K1, these kinases play primary roles in the hematopoietic system, and were thus viewed as unlikely to have been responsible for the effect we were studying. […] On the other hand, S6K1 is known to play a requisite role in the regulation of autophagy in Drosophila, making it a promising candidate for the in vivo target of resveratrol that is responsible for inhibition of autophagy.

DAPK2(h) = DAPK2(h) (Homo sapiens, UniProt Q9UIK4); assay: biochemical; parameters: Upstate KinaseProfiler in vitro kinase activity assay, per cent of DMSO control; settings: read-out: Activity (% of Control)
Experimental: as §1

PKA(h) = biological target: T2, PKA(h) (Homo sapiens, UniProt P17612); assay: biochemical; parameters: Upstate KinaseProfiler in vitro kinase activity assay, per cent of DMSO control; settings: read-out: Activity (% of Control)
T2 construct: gene PRKACA
Experimental: as §1

PKCζ(h) = biological target: T3, PKCζ(h) (Homo sapiens, UniProt Q05513); assay: biochemical; parameters: Upstate KinaseProfiler in vitro kinase activity assay, per cent of DMSO control; settings: read-out: Activity (% of Control)
T3 construct: gene PRKCZ
Experimental: as §1

GSK3α(h) = biological target: T4, GSK3α(h) (Homo sapiens, UniProt P49840); assay: biochemical; parameters: Upstate KinaseProfiler in vitro kinase activity assay, per cent of DMSO control; settings: read-out: Activity (% of Control)
T4 construct: gene GSK3A
Experimental: as §1

CDK5/p35(h) = biological target: T5, CDK5/p35(h) (Homo sapiens, UniProt Q00535); assay: biochemical; parameters: Upstate KinaseProfiler in vitro kinase activity assay, per cent of DMSO control; settings: read-out: Activity (% of Control)
T5 construct: p35
Experimental: as §1

PDGFRß(h) = biological target: T6, PDGFRß(h) (Homo sapiens, UniProt P09619); assay: biochemical; parameters: Upstate KinaseProfiler in vitro kinase activity assay, per cent of DMSO control; settings: read-out: Activity (% of Control)
T6 construct: gene PDGFRB
Experimental: as §1

PKCθ(h) = biological target: T7, PKCθ(h) (Homo sapiens, UniProt Q04759); assay: biochemical; parameters: Upstate KinaseProfiler in vitro kinase activity assay, per cent of DMSO control; settings: read-out: Activity (% of Control)
T7 construct: gene PRKCQ
Experimental: as §1

CDK5/p25(h) = biological target: T8, CDK5/p25(h) (Homo sapiens, UniProt Q00535); assay: biochemical; parameters: Upstate KinaseProfiler in vitro kinase activity assay, per cent of DMSO control; settings: read-out: Activity (% of Control)
T8 construct: p25
Experimental: as §1

IGF-1R(h) = biological target: T9, IGF-1R(h) (Homo sapiens, UniProt P08069); assay: biochemical; parameters: Upstate KinaseProfiler in vitro kinase activity assay, per cent of DMSO control; settings: read-out: Activity (% of Control)
T9 construct: gene IGF1R
Experimental: as §1

Rsk1(h) = biological target: T10, Rsk1(h) (Homo sapiens, UniProt Q15418); assay: biochemical; parameters: Upstate KinaseProfiler in vitro kinase activity assay, per cent of DMSO control; settings: read-out: Activity (% of Control)
T10 construct: gene RPS6KA1
Experimental: as §1

PI 3-Kinaseδ(h) = biological target: T11, PI 3-Kinaseδ(h) (Homo sapiens, UniProt O00329); assay: biochemical; parameters: Upstate KinaseProfiler in vitro kinase activity assay, per cent of DMSO control; settings: read-out: Activity (% of Control)
T11 construct: gene PIK3CD
Experimental: as §1

PKBγ(h) = biological target: T12, PKBγ(h) (Homo sapiens, UniProt Q9Y243); assay: biochemical; parameters: Upstate KinaseProfiler in vitro kinase activity assay, per cent of DMSO control; settings: read-out: Activity (% of Control)
T12 construct: gene AKT3
Experimental: as §1

PKCßI(h) = biological target: T13, PKCßI(h) (Homo sapiens, UniProt P05771); assay: biochemical; parameters: Upstate KinaseProfiler in vitro kinase activity assay, per cent of DMSO control; settings: read-out: Activity (% of Control)
T13 construct: gene PRKCB; isoform beta I
Experimental: as §1

Ros(h) = biological target: T14, Ros(h) (Homo sapiens, UniProt P08922); assay: biochemical; parameters: Upstate KinaseProfiler in vitro kinase activity assay, per cent of DMSO control; settings: read-out: Activity (% of Control)
T14 construct: gene ROS1
Experimental: as §1

FGFR1(h) = FGFR1(h) (Homo sapiens, UniProt P11362); assay: biochemical; parameters: Upstate KinaseProfiler in vitro kinase activity assay, per cent of DMSO control; settings: read-out: Activity (% of Control)
Experimental: as §1

NEK2(h) = NEK2(h) (Homo sapiens, UniProt P51955); assay: biochemical; parameters: Upstate KinaseProfiler in vitro kinase activity assay, per cent of DMSO control; settings: read-out: Activity (% of Control)
Experimental: as §1

T8 sequence (Q00535 whole entry): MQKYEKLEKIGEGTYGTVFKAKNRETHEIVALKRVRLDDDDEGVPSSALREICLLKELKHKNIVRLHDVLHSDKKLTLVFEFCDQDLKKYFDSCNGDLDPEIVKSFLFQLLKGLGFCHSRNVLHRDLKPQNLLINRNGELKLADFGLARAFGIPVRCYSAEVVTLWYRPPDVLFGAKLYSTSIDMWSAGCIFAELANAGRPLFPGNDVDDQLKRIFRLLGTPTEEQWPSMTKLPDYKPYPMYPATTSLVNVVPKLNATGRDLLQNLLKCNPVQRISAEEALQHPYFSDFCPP
T8 sequence (Q15078 whole entry partner): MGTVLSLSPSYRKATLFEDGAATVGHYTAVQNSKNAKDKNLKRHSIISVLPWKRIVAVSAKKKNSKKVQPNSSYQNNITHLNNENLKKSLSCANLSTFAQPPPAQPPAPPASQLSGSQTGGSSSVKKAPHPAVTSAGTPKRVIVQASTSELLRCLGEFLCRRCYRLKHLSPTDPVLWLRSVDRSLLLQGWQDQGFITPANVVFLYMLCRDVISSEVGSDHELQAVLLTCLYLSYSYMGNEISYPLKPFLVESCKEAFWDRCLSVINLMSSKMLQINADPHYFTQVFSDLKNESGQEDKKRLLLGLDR
T5 sequence (Q00535 whole entry): as the sequence (Q00535 whole entry) above
T5 sequence (Q15078 whole entry partner): as the sequence (Q15078 whole entry partner) above
Chain of NEK2(h) (P51955 whole entry): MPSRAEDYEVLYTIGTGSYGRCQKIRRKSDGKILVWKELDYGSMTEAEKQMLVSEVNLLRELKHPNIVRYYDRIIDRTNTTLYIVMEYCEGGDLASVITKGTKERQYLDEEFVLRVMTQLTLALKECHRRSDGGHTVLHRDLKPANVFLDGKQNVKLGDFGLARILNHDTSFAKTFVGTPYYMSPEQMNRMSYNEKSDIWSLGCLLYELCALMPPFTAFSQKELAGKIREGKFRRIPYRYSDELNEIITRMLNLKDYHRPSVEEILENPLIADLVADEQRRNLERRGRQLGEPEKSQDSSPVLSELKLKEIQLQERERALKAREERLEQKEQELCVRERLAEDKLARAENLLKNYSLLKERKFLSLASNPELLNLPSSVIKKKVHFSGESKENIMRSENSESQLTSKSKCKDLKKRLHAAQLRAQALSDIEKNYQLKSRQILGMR
T9 sequence (P08069 whole entry): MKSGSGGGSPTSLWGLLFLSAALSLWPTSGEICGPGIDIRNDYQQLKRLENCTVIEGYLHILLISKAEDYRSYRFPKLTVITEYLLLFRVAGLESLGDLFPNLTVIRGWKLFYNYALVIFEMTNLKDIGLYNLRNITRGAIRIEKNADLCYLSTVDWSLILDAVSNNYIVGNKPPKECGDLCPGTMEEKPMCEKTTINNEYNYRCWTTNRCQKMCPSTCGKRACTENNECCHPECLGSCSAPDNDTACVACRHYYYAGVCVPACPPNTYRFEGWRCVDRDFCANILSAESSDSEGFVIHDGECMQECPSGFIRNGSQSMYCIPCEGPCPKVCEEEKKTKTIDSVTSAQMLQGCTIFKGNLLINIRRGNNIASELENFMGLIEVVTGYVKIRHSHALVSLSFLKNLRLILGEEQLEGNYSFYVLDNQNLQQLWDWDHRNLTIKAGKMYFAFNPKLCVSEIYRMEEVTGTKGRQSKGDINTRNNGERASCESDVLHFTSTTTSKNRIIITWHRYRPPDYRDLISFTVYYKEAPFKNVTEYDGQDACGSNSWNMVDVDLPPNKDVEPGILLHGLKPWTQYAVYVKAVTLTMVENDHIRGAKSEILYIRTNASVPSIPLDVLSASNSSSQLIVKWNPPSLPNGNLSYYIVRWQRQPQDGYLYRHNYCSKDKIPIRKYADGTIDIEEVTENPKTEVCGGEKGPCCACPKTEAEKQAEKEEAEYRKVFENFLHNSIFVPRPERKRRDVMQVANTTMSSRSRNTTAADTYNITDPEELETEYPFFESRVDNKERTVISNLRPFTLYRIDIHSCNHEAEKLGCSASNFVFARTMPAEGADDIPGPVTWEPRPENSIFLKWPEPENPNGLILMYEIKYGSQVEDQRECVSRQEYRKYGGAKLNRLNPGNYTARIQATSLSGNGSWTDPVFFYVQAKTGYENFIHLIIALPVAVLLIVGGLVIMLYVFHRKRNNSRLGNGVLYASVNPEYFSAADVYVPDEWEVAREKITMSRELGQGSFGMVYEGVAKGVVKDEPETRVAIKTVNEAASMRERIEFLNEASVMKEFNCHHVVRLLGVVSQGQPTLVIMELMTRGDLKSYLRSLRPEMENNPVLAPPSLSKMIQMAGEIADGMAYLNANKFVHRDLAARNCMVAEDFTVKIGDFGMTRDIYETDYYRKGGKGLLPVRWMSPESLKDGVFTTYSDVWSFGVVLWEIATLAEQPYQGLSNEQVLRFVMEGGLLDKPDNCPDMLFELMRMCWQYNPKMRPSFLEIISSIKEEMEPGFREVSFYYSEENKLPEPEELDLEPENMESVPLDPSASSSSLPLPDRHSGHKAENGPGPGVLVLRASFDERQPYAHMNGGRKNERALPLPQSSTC
T6 sequence (P09619 whole entry): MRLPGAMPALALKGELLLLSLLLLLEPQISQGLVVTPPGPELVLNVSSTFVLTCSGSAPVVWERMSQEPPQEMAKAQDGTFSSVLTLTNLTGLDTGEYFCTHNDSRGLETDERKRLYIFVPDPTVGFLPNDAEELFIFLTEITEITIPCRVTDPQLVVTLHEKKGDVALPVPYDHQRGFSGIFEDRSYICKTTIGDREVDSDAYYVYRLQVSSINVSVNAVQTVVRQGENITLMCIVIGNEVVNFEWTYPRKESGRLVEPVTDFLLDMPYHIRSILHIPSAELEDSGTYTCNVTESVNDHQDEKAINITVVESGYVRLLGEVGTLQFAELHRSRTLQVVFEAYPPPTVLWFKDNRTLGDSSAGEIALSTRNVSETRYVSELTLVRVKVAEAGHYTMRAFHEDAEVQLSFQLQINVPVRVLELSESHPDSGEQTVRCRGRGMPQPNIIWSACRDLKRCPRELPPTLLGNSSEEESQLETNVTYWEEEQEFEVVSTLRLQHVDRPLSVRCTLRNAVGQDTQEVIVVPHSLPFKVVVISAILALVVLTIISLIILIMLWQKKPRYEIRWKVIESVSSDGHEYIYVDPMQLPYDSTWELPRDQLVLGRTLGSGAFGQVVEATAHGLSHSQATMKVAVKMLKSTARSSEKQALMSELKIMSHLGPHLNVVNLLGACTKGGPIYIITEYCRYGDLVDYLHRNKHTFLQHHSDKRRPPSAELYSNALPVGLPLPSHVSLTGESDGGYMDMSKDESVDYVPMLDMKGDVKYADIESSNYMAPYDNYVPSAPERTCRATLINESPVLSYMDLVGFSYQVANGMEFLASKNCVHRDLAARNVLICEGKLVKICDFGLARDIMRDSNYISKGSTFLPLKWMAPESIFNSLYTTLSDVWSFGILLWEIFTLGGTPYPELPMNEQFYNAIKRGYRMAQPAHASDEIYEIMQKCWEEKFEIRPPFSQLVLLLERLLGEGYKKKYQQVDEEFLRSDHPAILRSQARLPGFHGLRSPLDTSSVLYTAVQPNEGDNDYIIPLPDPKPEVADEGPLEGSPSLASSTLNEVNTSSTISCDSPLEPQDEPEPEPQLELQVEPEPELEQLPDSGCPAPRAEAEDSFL
T7 sequence (Q04759 whole entry): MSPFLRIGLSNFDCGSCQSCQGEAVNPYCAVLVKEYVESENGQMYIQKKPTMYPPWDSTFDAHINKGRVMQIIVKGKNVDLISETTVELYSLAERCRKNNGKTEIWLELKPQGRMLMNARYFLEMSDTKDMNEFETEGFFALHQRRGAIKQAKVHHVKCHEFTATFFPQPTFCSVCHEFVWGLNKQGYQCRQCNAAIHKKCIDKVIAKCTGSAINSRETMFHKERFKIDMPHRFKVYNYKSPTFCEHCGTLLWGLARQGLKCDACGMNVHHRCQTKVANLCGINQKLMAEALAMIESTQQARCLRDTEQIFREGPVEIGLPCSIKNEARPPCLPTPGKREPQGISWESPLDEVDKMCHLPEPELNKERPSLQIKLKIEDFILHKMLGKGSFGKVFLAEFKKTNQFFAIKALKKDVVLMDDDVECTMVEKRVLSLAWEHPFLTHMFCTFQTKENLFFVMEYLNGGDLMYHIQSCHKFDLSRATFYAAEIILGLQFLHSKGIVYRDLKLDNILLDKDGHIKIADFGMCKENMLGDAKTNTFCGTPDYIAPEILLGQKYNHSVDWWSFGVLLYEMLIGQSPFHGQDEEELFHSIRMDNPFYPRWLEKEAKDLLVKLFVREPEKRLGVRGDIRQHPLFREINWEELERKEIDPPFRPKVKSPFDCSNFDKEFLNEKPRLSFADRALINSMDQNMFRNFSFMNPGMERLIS
T4 sequence (P49840 whole entry): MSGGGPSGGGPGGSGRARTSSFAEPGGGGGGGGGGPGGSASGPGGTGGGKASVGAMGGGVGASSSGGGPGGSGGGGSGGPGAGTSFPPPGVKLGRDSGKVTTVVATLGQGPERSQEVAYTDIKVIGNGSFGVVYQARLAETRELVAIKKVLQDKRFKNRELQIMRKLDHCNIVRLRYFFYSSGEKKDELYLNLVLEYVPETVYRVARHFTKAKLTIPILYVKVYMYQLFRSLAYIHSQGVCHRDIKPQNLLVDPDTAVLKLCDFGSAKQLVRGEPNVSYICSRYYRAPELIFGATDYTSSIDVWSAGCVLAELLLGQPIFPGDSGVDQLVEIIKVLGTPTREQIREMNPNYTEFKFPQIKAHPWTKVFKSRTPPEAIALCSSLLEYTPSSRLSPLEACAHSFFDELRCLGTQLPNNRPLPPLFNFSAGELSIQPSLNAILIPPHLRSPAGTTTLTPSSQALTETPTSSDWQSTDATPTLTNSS

## Oc1ccc(/C=C/c2cc(O)cc(O)c2)cc1 [Res, resveratrol]
Pim-2
  in vitro kinase screen (Upstate KinaseProfiler), single dose 20 μM: Jak2, NLK, p70 S6 kinase (S6K1), Pim-1, and Pim-2 emerged as potential targets of resveratrol
CDK2/cyclinA(h)
  remaining activity at 20 µM: 80 ± 1%
DAPK2(h)
  remaining activity at 20 µM: 67 ± 7%
PKA(h)
  remaining activity at 20 µM: 100%
PKCζ(h)
  remaining activity at 20 µM: 89%
GSK3α(h)
  remaining activity at 20 µM: 79 ± 4%
CDK5/p35(h)
  remaining activity at 20 µM: 77 ± 2%
PDGFRß(h)
  remaining activity at 20 µM: 119 ± 2%
PKCθ(h)
  remaining activity at 20 µM: 99 ± 5%
CDK5/p25(h)
  remaining activity at 20 µM: 64 ± 4%
IGF-1R(h)
  remaining activity at 20 µM: 75%
Rsk1(h)
  remaining activity at 20 µM: 70 ± 1%
PI 3-Kinaseδ(h)
  remaining activity at 20 µM: 106 ± 1%
PKBγ(h)
  remaining activity at 20 µM: 89 ± 4%
PKCßI(h)
  remaining activity at 20 µM: 103 ± 5%
Ros(h)
  remaining activity at 20 µM: 102 ± 4%
FGFR1(h)
  remaining activity at 20 µM: 58 ± 2%
NEK2(h)
  remaining activity at 20 µM: 102 ± 4%
